What all share (assay): relative viability (nuclei count vs DMSO), 5 days (fraction); higher = more cells survive
Compound in the test “Gemcitabine + Foretinib”: Nc1ccn([C@@H]2O[C@H](CO)[C@@H](O)C2(F)F)c(=O)n1 [Gemcitabine] + COc1cc2c(Oc3ccc(NC(=O)C4(C(=O)Nc5ccc(F)cc5)CC4)cc3F)ccnc2cc1OCCCN1CCOCC1 [Foretinib] (partner 0.25 µM)
The method, boiled down:
(§1)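 Nuclei were stained with Hoechst during a one-step fixation (final 0.05% Triton X-100, 1% formaldehyde, 1 ug/ml Hoechst) carried out 5 days after dosing, then counted on 4× images. The cells, lung cancer lines in 1536-well plates, had been dosed by pin tool the day after seeding with one drug alone or a fixed anchor-drug dose plus five library-drug doses (not always all listed) in √10 steps. Relative viability is the nuclei count in treated wells divided by that in vehicle wells, and each value is the median of duplicate plates.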

Compound in the test “Gemcitabine + Pictilisib”: Nc1ccn([C@@H]2O[C@H](CO)[C@@H](O)C2(F)F)c(=O)n1 [Gemcitabine] + CS(=O)(=O)N1CCN(Cc2cc3nc(-c4cccc5[nH]ncc45)nc(N4CCOCC4)c3s2)CC1 [Pictilisib] (partner 1 µM)
The method, boiled down:
as §1

Compound in the test “Gemcitabine + AZD7762”: Nc1ccn([C@@H]2O[C@H](CO)[C@@H](O)C2(F)F)c(=O)n1 [Gemcitabine] + NC(=O)Nc1cc(-c2cccc(F)c2)sc1C(=O)N[C@H]1CCCNC1 [AZD7762] (partner 0.2 µM)
Put shortly: as §1

Compound in the test “Gemcitabine + Vorinostat”: Nc1ccn([C@@H]2O[C@H](CO)[C@@H](O)C2(F)F)c(=O)n1 [Gemcitabine] + O=C(CCCCCCC(=O)Nc1ccccc1)NO [Vorinostat] (partner 1 µM)
The method, boiled down:
as §1

LOU-NH91: the relative viability with Gemcitabine + Foretinib (first compound 0.001 µM) amounted to 0.965; in the test with Gemcitabine + Foretinib (first compound 0.003162 µM), 0.69; with Gemcitabine + Foretinib (first compound 0.01 µM), 0.591; in the test with Gemcitabine + Foretinib (first compound 0.03162 µM) it was 0.332; with Gemcitabine + Foretinib (first compound 0.1 µM) it was 0.209; in the test with Gemcitabine + Pictilisib (first compound 0.001 µM), 0.496. Besides, the relative viability with Gemcitabine + Pictilisib (first compound 0.003162 µM) was 0.475; with Gemcitabine + Pictilisib (first compound 0.01 µM), 0.486; in the test with Gemcitabine + Pictilisib (first compound 0.03162 µM), 0.389; in the test with Gemcitabine + Pictilisib (first compound 0.1 µM) it was 0.34; with Gemcitabine + AZD7762 (first compound 0.001 µM) it was 0.762; with Gemcitabine + AZD7762 (first compound 0.003162 µM) it was 0.603. Moreover, the relative viability in the test with Gemcitabine + AZD7762 (first compound 0.01 µM) is 0.395; in the test with Gemcitabine + AZD7762 (first compound 0.03162 µM) it was 0.288; with Gemcitabine + AZD7762 (first compound 0.1 µM), 0.292; in the test with Gemcitabine + Vorinostat (first compound 0.001 µM), 0.943; with Gemcitabine + Vorinostat (first compound 0.003162 µM), 0.761; in the test with Gemcitabine + Vorinostat (first compound 0.01 µM), 0.421. The relative viability was 0.22 with Gemcitabine + Vorinostat (first compound 0.03162 µM) and 0.268 with Gemcitabine + Vorinostat (first compound 0.1 µM).

Turning to NCI-H2347, the relative viability in the test with Gemcitabine + Foretinib (first compound 0.001 µM) worked out at 0.817; with Gemcitabine + Foretinib (first compound 0.003162 µM) it was 0.731; with Gemcitabine + Foretinib (first compound 0.01 µM) it was 0.826; in the test with Gemcitabine + Foretinib (first compound 0.03162 µM), 0.492; with Gemcitabine + Foretinib (first compound 0.1 µM), 0.35; with Gemcitabine + Pictilisib (first compound 0.001 µM), 0.554. The relative viability is 0.655 with Gemcitabine + Pictilisib (first compound 0.003162 µM); 0.648 with Gemcitabine + Pictilisib (first compound 0.01 µM); 0.385 with Gemcitabine + Pictilisib (first compound 0.03162 µM); 0.348 in the test with Gemcitabine + Pictilisib (first compound 0.1 µM); 0.494 with Gemcitabine + AZD7762 (first compound 0.001 µM); 0.468 in the test with Gemcitabine + AZD7762 (first compound 0.003162 µM). Moreover, the relative viability came out at 0.205 in the test with Gemcitabine + AZD7762 (first compound 0.01 µM); 0.217 in the test with Gemcitabine + AZD7762 (first compound 0.03162 µM); 0.233 in the test with Gemcitabine + AZD7762 (first compound 0.1 µM); 0.584 with Gemcitabine + Vorinostat (first compound 0.001 µM); 0.453 in the test with Gemcitabine + Vorinostat (first compound 0.003162 µM); 0.507 with Gemcitabine + Vorinostat (first compound 0.01 µM). Besides, the relative viability in the test with Gemcitabine + Vorinostat (first compound 0.03162 µM) turned out to be 0.327; with Gemcitabine + Vorinostat (first compound 0.1 µM) it was 0.281.

In the case of NCI-H2126, the relative viability is 1.15 with Gemcitabine + Foretinib (first compound 0.001 µM); 1.17 in the test with Gemcitabine + Foretinib (first compound 0.003162 µM); 1.15 with Gemcitabine + Foretinib (first compound 0.01 µM); 0.674 in the test with Gemcitabine + Foretinib (first compound 0.03162 µM); 0.324 with Gemcitabine + Foretinib (first compound 0.1 µM); 0.474 in the test with Gemcitabine + Pictilisib (first compound 0.001 µM). For the same cell line, the relative viability stood at 0.485 with Gemcitabine + Pictilisib (first compound 0.003162 µM); 0.479 with Gemcitabine + Pictilisib (first compound 0.01 µM); 0.349 in the test with Gemcitabine + Pictilisib (first compound 0.03162 µM); 0.278 in the test with Gemcitabine + Pictilisib (first compound 0.1 µM); 0.995 with Gemcitabine + AZD7762 (first compound 0.001 µM); 1.03 with Gemcitabine + AZD7762 (first compound 0.003162 µM). The relative viability with Gemcitabine + AZD7762 (first compound 0.01 µM) is 0.891; with Gemcitabine + AZD7762 (first compound 0.03162 µM) it was 0.265; with Gemcitabine + AZD7762 (first compound 0.1 µM) it was 0.205; in the test with Gemcitabine + Vorinostat (first compound 0.001 µM), 0.841; in the test with Gemcitabine + Vorinostat (first compound 0.003162 µM), 0.837; with Gemcitabine + Vorinostat (first compound 0.01 µM), 0.707. For the same cell line, the relative viability in the test with Gemcitabine + Vorinostat (first compound 0.03162 µM) worked out at 0.515; with Gemcitabine + Vorinostat (first compound 0.1 µM), 0.275.

As for HCC-827, the relative viability with Gemcitabine + Foretinib (first compound 0.001 µM) amounted to 1; in the test with Gemcitabine + Foretinib (first compound 0.003162 µM), 0.865; in the test with Gemcitabine + Foretinib (first compound 0.01 µM) it was 0.565; in the test with Gemcitabine + Foretinib (first compound 0.03162 µM) it was 0.332; in the test with Gemcitabine + Foretinib (first compound 0.1 µM) it was 0.177; with Gemcitabine + Pictilisib (first compound 0.001 µM) it was 1.11. In addition, the relative viability with Gemcitabine + Pictilisib (first compound 0.003162 µM) was found to be 0.845; with Gemcitabine + Pictilisib (first compound 0.01 µM) it was 0.89; with Gemcitabine + Pictilisib (first compound 0.03162 µM), 0.591; with Gemcitabine + Pictilisib (first compound 0.1 µM), 0.389; with Gemcitabine + AZD7762 (first compound 0.001 µM), 0.128; with Gemcitabine + AZD7762 (first compound 0.003162 µM), 0.12. The relative viability with Gemcitabine + AZD7762 (first compound 0.01 µM) came out at 0.107; in the test with Gemcitabine + AZD7762 (first compound 0.03162 µM) it was 0.11; with Gemcitabine + AZD7762 (first compound 0.1 µM), 0.133; with Gemcitabine + Vorinostat (first compound 0.001 µM), 0.883; with Gemcitabine + Vorinostat (first compound 0.003162 µM), 0.806; with Gemcitabine + Vorinostat (first compound 0.01 µM) it was 0.426. Moreover, the relative viability turned out to be 0.19 with Gemcitabine + Vorinostat (first compound 0.03162 µM) and 0.179 with Gemcitabine + Vorinostat (first compound 0.1 µM).

Regarding NCI-H3122, the relative viability turned out to be 0.94 with Gemcitabine + Foretinib (first compound 0.001 µM); 0.959 with Gemcitabine + Foretinib (first compound 0.003162 µM); 0.89 with Gemcitabine + Foretinib (first compound 0.01 µM); 0.123 with Gemcitabine + Foretinib (first compound 0.03162 µM); 0.0966 with Gemcitabine + Foretinib (first compound 0.1 µM); 0.648 with Gemcitabine + Pictilisib (first compound 0.001 µM). Also, the relative viability was 0.595 in the test with Gemcitabine + Pictilisib (first compound 0.003162 µM); 0.553 with Gemcitabine + Pictilisib (first compound 0.01 µM); 0.265 with Gemcitabine + Pictilisib (first compound 0.03162 µM); 0.159 with Gemcitabine + Pictilisib (first compound 0.1 µM); 1.02 with Gemcitabine + AZD7762 (first compound 0.001 µM); 0.783 in the test with Gemcitabine + AZD7762 (first compound 0.003162 µM). Besides, the relative viability with Gemcitabine + AZD7762 (first compound 0.01 µM) came out at 0.126; in the test with Gemcitabine + AZD7762 (first compound 0.03162 µM) it was 0.0803; in the test with Gemcitabine + AZD7762 (first compound 0.1 µM), 0.097; with Gemcitabine + Vorinostat (first compound 0.001 µM) it was 0.926; with Gemcitabine + Vorinostat (first compound 0.003162 µM), 1.09; with Gemcitabine + Vorinostat (first compound 0.01 µM), 0.618. Also, the relative viability with Gemcitabine + Vorinostat (first compound 0.03162 µM) stood at 0.202; in the test with Gemcitabine + Vorinostat (first compound 0.1 µM), 0.098.

In the case of HOP-62, the relative viability with Gemcitabine + Foretinib (first compound 0.001 µM) is 1.01; in the test with Gemcitabine + Foretinib (first compound 0.003162 µM), 0.965; with Gemcitabine + Foretinib (first compound 0.01 µM) it was 0.306; with Gemcitabine + Foretinib (first compound 0.03162 µM), 0.103; in the test with Gemcitabine + Foretinib (first compound 0.1 µM), 0.0927; in the test with Gemcitabine + Pictilisib (first compound 0.001 µM) it was 0.78. Besides, the relative viability with Gemcitabine + Pictilisib (first compound 0.003162 µM) turned out to be 0.464; in the test with Gemcitabine + Pictilisib (first compound 0.01 µM) it was 0.315; with Gemcitabine + Pictilisib (first compound 0.03162 µM), 0.0682; with Gemcitabine + Pictilisib (first compound 0.1 µM), 0.0859; with Gemcitabine + AZD7762 (first compound 0.001 µM), 0.287; with Gemcitabine + AZD7762 (first compound 0.003162 µM) it was 0.08. Also, the relative viability was 0.0514 with Gemcitabine + AZD7762 (first compound 0.01 µM); 0.0757 with Gemcitabine + AZD7762 (first compound 0.03162 µM); 0.0617 in the test with Gemcitabine + AZD7762 (first compound 0.1 µM); 0.661 in the test with Gemcitabine + Vorinostat (first compound 0.001 µM); 0.353 in the test with Gemcitabine + Vorinostat (first compound 0.003162 µM); 0.0836 with Gemcitabine + Vorinostat (first compound 0.01 µM). Besides, the relative viability with Gemcitabine + Vorinostat (first compound 0.03162 µM) came out at 0.0926; with Gemcitabine + Vorinostat (first compound 0.1 µM) it was 0.0697.

The values are drawn from the supplement of paper PMC10307832.
